Results as given in PubChem BioAssay AID256 (DTP/NCI, 2004).
Several values for one entry are separate records, joined by “and”; a condition that tells them apart may be missing. Identical values can stand only once. Toxic doses and inconclusive results are not listed. The calls were made as follows: active = survival T/C of 150% or more; inactive = T/C below 125% in these data.

Tested on: CD2F1 mice, L1210 leukemia ip, survival T/C
Experiment: NCI In Vivo Anticancer Drug Screen. Data for tumor model L1210 Leukemia (intraperitoneal) in CD2F1 (CDF1) mice
Settings: higher = longer survival
Outline: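 Mice carrying a transplanted tumor received test compound or vehicle alone. The value is the measurement in the treated group divided by that in the vehicle-treated control group.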

[1] = endpoint: mean survival time, dose: 50.0 mg/kg/injection, schedule: Q01DX009 (ip), vehicle: saline with Tween-80
[2] = endpoint: mean survival time, dose: 100.0 mg/kg/injection, schedule: Q01DX009 (ip), vehicle: saline with Tween-80
[3] = endpoint: mean survival time, dose: 200.0 mg/kg/injection, schedule: Q01DX009 (ip), vehicle: saline with Tween-80
[4] = endpoint: mean survival time, dose: 100.0 mg/kg/injection, schedule: Q04DX002 (ip), vehicle: saline with Tween-80
[5] = endpoint: mean survival time, dose: 200.0 mg/kg/injection, schedule: Q04DX002 (ip), vehicle: saline with Tween-80
[6] = endpoint: mean survival time, dose: 400.0 mg/kg/injection, schedule: Q04DX002 (ip), vehicle: saline with Tween-80
[7] = endpoint: mean survival time, dose: 100.0 mg/kg/injection, schedule: Q04DX003 (ip), vehicle: saline with Tween-80
[8] = endpoint: mean survival time, dose: 200.0 mg/kg/injection, schedule: Q04DX003 (ip), vehicle: saline with Tween-80
[9] = endpoint: mean survival time, dose: 400.0 mg/kg/injection, schedule: Q04DX003 (ip), vehicle: saline with Tween-80
[10] = endpoint: mean survival time, dose: 400.0 mg/kg/injection, schedule: Q01DX009 (ip), vehicle: saline with Tween-80
[11] = endpoint: mean survival time, dose: 100.0 mg/kg/injection, schedule: Q01DX001 (ip), vehicle: other
[12] = endpoint: mean survival time, dose: 200.0 mg/kg/injection, schedule: Q01DX001 (ip), vehicle: other
[13] = endpoint: mean survival time, dose: 400.0 mg/kg/injection, schedule: Q01DX001 (ip), vehicle: other
[14] = endpoint: mean survival time, dose: 100.0 mg/kg/injection, schedule: Q01DX001 (ip), vehicle: saline with Tween-80
[15] = endpoint: mean survival time, dose: 200.0 mg/kg/injection, schedule: Q01DX001 (ip), vehicle: saline with Tween-80
[16] = endpoint: mean survival time, dose: 50.0 mg/kg/injection, schedule: Q04DX002 (ip), vehicle: saline with Tween-80

Measured: T/C

OCCN=c1c2ccccc2n(O)c2c1ccc1ccccc12
inactive: [1] 104 % of control | [2] 112 % of control | [3] 108 % of control

O=C1C2C3CCC(O3)C2C(=O)N1CC#CCN1C(=O)C2C3CCC(O3)C2C1=O (stereo not given)
inactive: [4] 98 % of control | [5] 98 % of control | [6] 90 % of control

CCC(C)CC(=O)Nc1cccc(O)c1 (stereo not given)
inactive: [7] 96 % of control | [8] 96 % of control | [9] 91 % of control

CC(=O)CC(=O)Nc1cccc(Br)c1
inactive: [2] 98 % of control | [3] 101 % of control | [10] 101 % of control

CCCCC1(CC)NC(=O)NC1=O (stereo not given)
inactive: [11] 92 % of control | [12] 92 % of control | [13] 87 % of control

O.O=S(=O)([O-])O.O=[N+]([O-])O.[Co+3].[NH2-].[NH2-].[NH2-].[NH2-]
inactive: [4] 94 % of control | [5] 97 % of control

COC(=O)c1ccoc1
inactive: endpoint: median survival time, dose: 12.5 mg/kg/injection, schedule: Q01DX009 (ip), vehicle: saline 98 % of control | endpoint: median survival time, dose: 25.0 mg/kg/injection, schedule: Q01DX009 (ip), vehicle: saline 100 % of control | endpoint: median survival time, dose: 50.0 mg/kg/injection, schedule: Q01DX009 (ip), vehicle: saline 100 % of control | endpoint: median survival time, dose: 100.0 mg/kg/injection, schedule: Q01DX009 (ip), vehicle: saline 104 % of control | endpoint: median survival time, dose: 200.0 mg/kg/injection, schedule: Q01DX009 (ip), vehicle: saline 105 % of control | endpoint: median survival time, dose: 400.0 mg/kg/injection, schedule: Q01DX009 (ip), vehicle: saline 114 % of control

O=C1C2CCN(CC2)C1COc1cccc2ccccc12 (stereo not given)
inactive: [14] 106 % of control | [15] 95 % of control | endpoint: mean survival time, dose: 400.0 mg/kg/injection, schedule: Q01DX001 (ip), vehicle: saline with Tween-80 102 % of control

COc1cc(C2=N/C(=C\c3cc(Br)ccc3O)C(=O)O2)cc(OC)c1OC
inactive: [16] 88 % of control | [4] 95 % of control and 100 % of control | [5] 96 % of control | [6] 88 % of control and 100 % of control

CN[C@H]1CCc2cc(OC)c(OC)c(OC)c2-c2ccc(SC)c(=O)cc21
inactive: endpoint: mean survival time, dose: 12.5 mg/kg/injection, schedule: Q01DX001 (ip), vehicle: Klucel (hydroxypropylcellulose) (HPC) 104 % of control | endpoint: mean survival time, dose: 25.0 mg/kg/injection, schedule: Q01DX001 (ip), vehicle: Klucel (hydroxypropylcellulose) (HPC) 106 % of control | endpoint: mean survival time, dose: 50.0 mg/kg/injection, schedule: Q01DX001 (ip), vehicle: Klucel (hydroxypropylcellulose) (HPC) 102 % of control

Cc1ccc(CCC=O)o1
inactive: [16] 100 % of control | [4] 100 % of control | [5] 100 % of control

O=C(O)c1ccccc1F
inactive: [14] 96 % of control | [15] 107 % of control

OCc1ccc(O)cc1
inactive: endpoint: mean survival time, dose: 100.0 mg/kg/injection, schedule: Q04DX003 (ip), vehicle: other 100 % of control | endpoint: mean survival time, dose: 200.0 mg/kg/injection, schedule: Q04DX003 (ip), vehicle: other 95 % of control | endpoint: mean survival time, dose: 400.0 mg/kg/injection, schedule: Q04DX003 (ip), vehicle: other 94 % of control

Cc1ccc(C(=O)OCCN2CCOCC2)c([N+](=O)[O-])c1OCc1ccccc1
inactive: endpoint: mean survival time, dose: 100.0 mg/kg/injection, schedule: Q04DX002 (ip), vehicle: other 94 % of control | endpoint: mean survival time, dose: 200.0 mg/kg/injection, schedule: Q04DX002 (ip), vehicle: other 103 % of control | endpoint: mean survival time, dose: 400.0 mg/kg/injection, schedule: Q04DX002 (ip), vehicle: other 91 % of control

O=C(/C=C(\C(=O)c1ccccc1)c1ccccc1)c1ccccc1
inactive: [1] 95 % of control | endpoint: mean survival time, dose: 50.0 mg/kg/injection, schedule: Q04DX003 (ip), vehicle: saline with Tween-80 92 % of control | [2] 96 % of control | [7] 87 % of control | [3] 101 % of control | [8] 87 % of control

O=C1C=C(O)c2ccccc2C1=O
inactive: endpoint: mean survival time, dose: 25.0 mg/kg/injection, schedule: Q01DX001 (ip), vehicle: saline 106 % of control | endpoint: mean survival time, dose: 50.0 mg/kg/injection, schedule: Q01DX001 (ip), vehicle: saline 106 % of control | endpoint: mean survival time, dose: 100.0 mg/kg/injection, schedule: Q01DX001 (ip), vehicle: saline 102 % of control

CN(C)S(=O)(=O)CC(O)(c1ccccc1)c1ccccc1
inactive: [7] 103 % of control | [8] 103 % of control | [9] 110 % of control

Cc1cc2ccc(Br)cc2[nH]1
inactive: [11] 104 % of control | [12] 101 % of control | [13] 98 % of control

COC1OC2COC(c3ccccc3)OC2C2OC12 (stereo not given)
inactive: [2] 94 % of control | [3] 92 % of control | [10] 97 % of control

OC(CBr)C(O)CBr (stereo not given)
inactive: [1] 108 % of control | endpoint: mean survival time, dose: 50.0 mg/kg/injection, schedule: Q01DX009 (ip), vehicle: saline 108 % of control | [14] 102 % of control | [2] 106 % of control | endpoint: mean survival time, dose: 100.0 mg/kg/injection, schedule: Q01DX009 (ip), vehicle: saline 108 % of control | [7] 102 % of control | [15] 109 % of control | [8] 86 % of control

COc1ccc(C(=O)CCC(=O)O)c(C)c1
inactive: endpoint: mean survival time, dose: 100.0 mg/kg/injection, schedule: Q04DX003 (ip), vehicle: saline 96 % of control | endpoint: mean survival time, dose: 200.0 mg/kg/injection, schedule: Q04DX003 (ip), vehicle: saline 94 % of control | endpoint: mean survival time, dose: 400.0 mg/kg/injection, schedule: Q04DX003 (ip), vehicle: saline 92 % of control

COc1nc(NC2OC(CO)C(O)C(O)C2O)c(Br)c(=O)[nH]1 (stereo not given)
inactive: endpoint: median survival time, dose: 12.5 mg/kg/injection, schedule: Q01DX005 (ip), vehicle: saline 100 % of control | endpoint: median survival time, dose: 25.0 mg/kg/injection, schedule: Q01DX005 (ip), vehicle: saline 101 % of control | endpoint: median survival time, dose: 50.0 mg/kg/injection, schedule: Q01DX005 (ip), vehicle: saline 102 % of control | endpoint: median survival time, dose: 100.0 mg/kg/injection, schedule: Q01DX005 (ip), vehicle: saline 101 % of control | endpoint: median survival time, dose: 200.0 mg/kg/injection, schedule: Q01DX005 (ip), vehicle: saline 101 % of control

COc1cc(OC)c(/C=C/c2cc3ccccc3c[n+]2C)c(OC)c1
inactive: endpoint: mean survival time, dose: 3.13 mg/kg/injection, schedule: Q01DX009 (ip), vehicle: saline with Tween-80 117 % of control | endpoint: mean survival time, dose: 6.25 mg/kg/injection, schedule: Q01DX009 (ip), vehicle: saline with Tween-80 117 % of control
